For assay [1], the system named is asynchronous 3D7 chloroquine-sensitive P. falciparum infected red blood cells. The assay can be described thus: Labeled hypoxanthine incorporation assay (in vitro anti-malarial activity). The class given is cell-based. The following applies: Plasmodium falciparum, 3D7, Erythrocyte, 3D7 chloroquine-sensitive strain, infected RBC, 48 h contact, [3H]-hypoxanthine incorporation; two independent experiments in duplicates; read-out: IC50 assessed on Plasmodium Falciparum.

The test system of assay [2] is Toxoplasma gondii RH-β1 strain. The assay can be described thus: microbe, parasite or virus in culture. It counts as cell-based. The following applies: Toxoplasma gondii, read-out: IC50 assessed on Toxoplama Gondii.

Structures are written as SMILES.

For the compound `O=c1[nH]c2ccccc2n1C1CCN(CCCN(Cc2ccccc2)Cc2ccccc2)CC1` [Compound 49, 1-(1-(3-(dibenzylamino)propyl)piperidin-4-yl)-1H-benzo[d]imidazol-2(3H)-one], the IC50 in assay [1] turned out to be 1270 nM; in assay [2] it was 800 nM.
Turning to `C[C@@H](CN1CCC(n2c(=O)[nH]c3ccccc32)CC1)N(Cc1ccccc1)Cc1ccccc1` [Compound 50, 1-(1-((S)-2-(dibenzylamino)propyl)piperidin-4-yl)-1H-benzo[d]imidazol-2(3H)-one], the IC50 in assay [1] was 3340 nM; in assay [2] it was 7000 nM.
Take `O=c1[nH]c2ccccc2n1C1CCN(C[C@H](Cc2ccccc2)N(Cc2ccccc2)Cc2ccccc2)CC1` [Compound 51, 1-(1-((S)-2-(dibenzylamino)-3-phenylpropyl)piperidin-4-yl)-1H-benzo[d]imidazol-2(3H)-one]: the IC50 is 2110 nM in assay [1] and 4000 nM in assay [2].
In the case of `O=c1[nH]c2ccccc2n1C1CCN(CCN(Cc2ccccc2)Cc2ccccc2)CC1` [Compound 52, 1-(1-(2-(dibenzylamino)ethyl)piperidin-4-yl)-1H-benzo[d]imidazol-2(3H)-one], the IC50 in assay [1] turned out to be 1570 nM; in assay [2], 2000 nM.
The like results for `O=C(OC[C@H](Cc1ccccc1)N(Cc1ccccc1)Cc1ccccc1)N1CCC(n2c(=O)n(S(=O)(=O)c3ccccc3)c3ccccc32)CC1` [Compound 53, (S)-2-(dibenzylamino)-3-phenylpropyl 4-(1,2-dihydro-3-phenylsulfonyl-2-oxobenzo[d]imidazol-1-yl)piperidine-1-carboxylate] were, in that order, 1940 nM and 22000 nM.
Regarding `C[C@@H](COC(=O)N1CCC(n2c(=O)n(S(=O)(=O)c3ccccc3)c3ccccc32)CC1)N(Cc1ccccc1)Cc1ccccc1` [Compound 54, (S)-2-(dibenzylamino)propyl 4-(2-oxo-3-phenylsulfonyl-2,3-dihydro-1H-benzo[d]imidazol-1-yl)piperidine-1-carboxylate], the figures for the IC50 in assay [1] and in assay [2] were 230 nM and 1680 nM, respectively.
As to `CCCc1ccc(S(=O)(=O)n2c(=O)n(C3CCN(C(=O)OC[C@H](C)N(Cc4ccccc4)Cc4ccccc4)CC3)c3ccccc32)cc1` [Compound 55, (S)-2-(dibenzylamino)propyl 4-(2-oxo-3-(4-propylphenylsulfonyl)-2,3-dihydro-1H-benzo[d]imidazol-1-yl)piperidine-1-carboxylate], the IC50 in assay [1] came to 9100 nM; in assay [2], 5500 nM.
For the compound `C[C@@H](COC(=O)N1CCC(n2c(=O)n(S(=O)(=O)c3ccc(F)cc3)c3ccccc32)CC1)N(Cc1ccccc1)Cc1ccccc1` [Compound 56, (S)-2-(dibenzylamino)propyl 4-(3-(4-fluorophenylsulfonyl)-2-oxo-2,3-dihydro-1H-benzo[d]imidazol-1-yl)piperidine-1-carboxylate], the half-inhibitory concentration (IC50) in assay [1] is 330 nM; in assay [2] it was 1500 nM.
On to `COc1ccc(S(=O)(=O)n2c(=O)n(C3CCN(C(=O)OC[C@H](C)N(Cc4ccccc4)Cc4ccccc4)CC3)c3ccccc32)cc1` [Compound 57, (S)-2-(dibenzylamino)propyl 4-(3-(4-methoxyphenylsulfonyl)-2-oxo-2,3-dihydro-1H-benzo[d]imidazol-1-yl)piperidine-1-carboxylate], for which the values for the 50% inhibitory concentration (IC50) in assay [1] and in assay [2] were 410 nM and 1750 nM, respectively.
As for `C[C@@H](COC(=O)N1CCC(n2c(=O)n(S(=O)(=O)c3ccc(C(F)(F)F)cc3)c3ccccc32)CC1)N(Cc1ccccc1)Cc1ccccc1` [Compound 58, (S)-2-(dibenzylamino)propyl 4-(2-oxo-3-(4-(trifluoromethyl)phenylsulfonyl)-2,3-dihydro-1H-benzo[d]imidazol-1-yl)piperidine-1-carboxylate], the IC50 is 420 nM in assay [1] and 8500 nM in assay [2].
For `C[C@@H](COC(=O)N1CCC(n2c(=O)n(S(=O)(=O)c3cccs3)c3ccccc32)CC1)N(Cc1ccccc1)Cc1ccccc1` [Compound 59, (S)-2-(dibenzylamino)propyl 4-(2-oxo-3-(thiophen-2-ylsulfonyl)-2,3-dihydro-1H-benzo[d]imidazol-1-yl)piperidine-1-carboxylate] the same measures were 470 nM and 3800 nM.
Regarding `C[C@@H](COC(=O)N1CCC(n2c(=O)n(S(=O)(=O)c3cccc4ccccc34)c3ccccc32)CC1)N(Cc1ccccc1)Cc1ccccc1` [Compound 61, (S)-2-(dibenzylamino)propyl 4-(3-(naphthalen-1-ylsulfonyl)-2-oxo-2,3-dihydro-1H-benzo[d]imidazol-1-yl)piperidine-1-carboxylate], the IC50 worked out at 950 nM in assay [1] and 2300 nM in assay [2].
As to `C[C@@H](COC(=O)N1CCC(n2c(=O)n(S(C)(=O)=O)c3ccccc32)CC1)N(Cc1ccccc1)Cc1ccccc1` [Compound 62, (S)-2-(dibenzylamino)propyl 4-(2-oxo-3-methylsulfonyl-2,3-dihydro-1H-benzo[d]imidazol-1-yl)piperidine-1-carboxylate], the IC50 was 1600 nM in assay [1] and 1980 nM in assay [2].
For `CC(=O)Nc1ccc(S(=O)(=O)n2c(=O)n(C3CCN(C(=O)OC[C@H](C)N(Cc4ccccc4)Cc4ccccc4)CC3)c3ccccc32)cc1` [Compound 63, (S)-2-(dibenzylamino)propyl 4-(2-oxo-3-(4-acetamidylphenylsulfonyl)-2,3-dihydro-1H-benzo[d]imidazol-1-yl)piperidine-1-carboxylate] the same measures were 1540 nM and 3000 nM.
Take `C[C@@H](COC(=O)N1CCC(n2c(=O)n(C(=O)c3ccccc3)c3ccccc32)CC1)N(Cc1ccccc1)Cc1ccccc1` [Compound 64, (S)-2-(dibenzylamino)propyl 4-(1,2-dihydro-2-oxo-1-(benzoyl)benzo[d]imidazol-3-yl)piperidine-1-carboxylate]: the values for the IC50 in assay [1] and in assay [2] were 2880 nM and 960 nM, respectively.
Consider `CC(=O)n1c(=O)n(C2CCN(C(=O)OC[C@H](C)N(Cc3ccccc3)Cc3ccccc3)CC2)c2ccccc21` [Compound 65, (S)-2-(dibenzylamino)propyl 4-(1-acetyl-1,2-dihydro-2-oxobenzo[d]imidazol-3-yl)piperidine-1-carboxylate], for which the IC50 in assay [1] was 2940 nM; in assay [2], 990 nM.
With `C[C@@H](COC(=O)N1CCC(n2c(=O)n(C(=O)OC(C)(C)C)c3ccccc32)CC1)N(Cc1ccccc1)Cc1ccccc1` [Compound 67, tert-butyl 3-(1-(((S)-2-(dibenzylamino)propoxy)carbonyl)piperidin-4-yl)-2,3-dihydro-2-oxobenzo[d]imidazole-1-carboxylate], the IC50 in assay [1] was 785 nM; in assay [2], 2000 nM.
Regarding `Cn1c(=O)n(C2CCN(C(=O)OC[C@H](Cc3ccccc3)N(Cc3ccccc3)Cc3ccccc3)CC2)c2ccccc21` [Compound 68, (S)-2-(dibenzylamino)-3-phenylpropyl 4-(1,2-dihydro-1-methyl-2-oxobenzo[d]imidazol-3-yl)piperidine-1-carboxylate], the figures for the IC50 in assay [1] and in assay [2] were 452 nM and 800 nM, respectively.
Take `C[C@@H](COC(=O)N1CCC(n2c(=O)n(C)c3ccccc32)CC1)N(Cc1ccccc1)Cc1ccccc1` [Compound 69, (S)-2-(dibenzylamino)propyl 4-(1,2-dihydro-1-methyl-2-oxobenzo[d]imidazol-3-yl)piperidine-1-carboxylate]: the IC50 in assay [1] stood at 1540 nM; in assay [2], 200 nM.

Broadly, the IC50 is the concentration needed to halve the response being measured.
